The results in this text go back to US9012446B2, “Amino-oxazines and amino-dihydrothiazine compounds as beta-secretase modulators and methods of use” (Amgen Inc., priority 2010, dated 2015).

The subject of one assay is Aβ40. The assay can be described thus: In vitro BACE cell-based assay (Aβ40 sandwich ELISA, cells stably expressing APP). The following applies: Homo sapiens. Summed up:
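Read-out is Aβ40 in cell supernatants, quantified by sandwich ELISA (capture 3 h, detection 2 h, both 4° C) with Delfia time-resolved fluorescence. Cells stably expressing APP were dosed across 10 concentrations from 100 μM or 10 μM top, 0.1% DMSO final; IC50 fitted from percent of control.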
(In general: An ELISA detects its analyte on a solid surface through an enzyme-linked reagent.)

For another assay, the target named is BACE (Homo sapiens, UniProt P56817). The assay is described as follows: In vitro enzymatic BACE FRET assay. The class given is biochemical. To be noted: average IC50, enzyme assay; read-out: BACE 1 FRET assay. Summed up:
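Fluorescence […] after Tris quench reports cleavage of a 50 nM quenched peptide substrate over 1 h. Beforehand, 0.2 nM enzyme sits 1 h with inhibitor dilutions. Buffer: 0.05 M acetate pH 4.2, 100 uM genapol, 10% DMSO final.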

For a further assay, the system named is Abeta 40. The assay can be described thus: In vivo inhibition of beta-secretase: Abeta 40 reduction in CSF and brain of the rat. To be noted: 10 mpk, after 4 hrs. The text has this:
In Vivo Inhibition of Beta-Secretase
Several animal models, including mouse, rat, dog, and monkey, may be used to screen for inhibition of beta-secretase activity in vivo following administration of a test compound sample. Animals used in this invention can be wild type, transgenic, or gene knockout animals. For example, the Tg2576 mouse model, prepared and conducted as described in Hsiao et al., 1996, Science 274, 99-102, and other non-transgenic or gene knockout animals are useful to analyze in vivo inhibition of Amyloid beta peptide (Abeta) production in the presence of inhibitory test compounds. Generally, 2 to 18 month old Tg2576 mice, gene knockout mice or non-transgenic animals are administered test compounds formulated in vehicles, such as cyclodextran, phosphate buffers, hydroxypropyl methylcellulose or other suitable vehicles. One to twenty-four hours following the administration of compound, animals are sacrificed, and brains as well as cerebrospinal fluid (CSF) and plasma are removed for analysis of A-beta levels and drug or test compound concentrations (Dovey et al., 2001, Journal of Neurochemistry, 76,173-181) Beginning at time 0, animals are administered by oral gavage, or other means of delivery such as intravenous injection, an inhibitory test compound of up to 100 mg/kg in a standard, conventional formulation, such as 2% hydroxypropyl methylcellulose, 1% Tween80. A separate group of animals receive 2% hydroxypropyl methylcellulose, 1% Tween80 alone, containing no test compound, and serve as a vehicle-control group. At the end of the test period, animals are sacrificed and brain tissues, plasma or cerebrospinal fluid are collected. Brains are either homogenized in 10 volumes (w/v) of 0.2% diethylamine (DEA) in 50 mM NaCl (Best et al., 2005, Journal of Pharmacology and Experimental Therapeutics, 313, 902-908), or in 10 volumes of 0.5% TritonX-100 in Tris-buffered saline (pH at about 7.6). Homogenates are centrifuged at 355,000 g, 4° C. for 30 minutes. CSF or brain supernatants are then analyzed for the presence of A-beta peptide by specific sandwich ELISA assays based on ECL (Electrochemiluminescence) technology. For example, rat Abeta40 is measured using biotinylated-4G8 (Signet) as a capture antibody and Fab40 (an in-house antibody specific to the C-terminal of Abeta40) as a detection antibody. For example, 4 hours after administration of 30 mg/kg oral dose of the test compound in 2% hydroxypropyl methylcellulose, 1% Tween80 (pH2.2) to 200 g male Sprague Dawley rats, amyloid beta peptide levels are measured for reduction by X % and Y % in cerebrospinal fluid and brain, respectively, when compared to the levels measured in the vehicle-treated rats. • Actual vehicles used: Oral: 2% HPMC, 1% Tween80, pH 2.2 • IV: 5% EtOH, 45% Propylene glycol in 5% Dextrose
The compounds of the invention may be shown to reduce the formation and/or deposition of amyloid beta peptide in the cerebrospinal fluid (CSF) as well as in the brain of a mouse or rat at either 3 mpk, 10 mpk or 30 mpk (mpk=mg compound per kg weight of the animal) dosing concentrations after 4 hrs.

Where [1] appears, read: HEK293, average IC50, read-out: HEK cell assay.
Where [2] appears, read: Abeta 40, rat CSF, read-out: % reduction of rat CSF levels at 10 pmk.
The mark [3] stands for this setting: Abeta 40, rat brain, read-out: % reduction of rat brain levels at 10 mpk.
The mark [4] stands for this setting: HEK293, average IC50, cell assay, HEK cells.

The structures appear in SMILES notation. pIC50: −log10 of the molar value. Where two headings read alike, the source gives them in different places.

BACE, sequence (P56817 46-501, species assumed): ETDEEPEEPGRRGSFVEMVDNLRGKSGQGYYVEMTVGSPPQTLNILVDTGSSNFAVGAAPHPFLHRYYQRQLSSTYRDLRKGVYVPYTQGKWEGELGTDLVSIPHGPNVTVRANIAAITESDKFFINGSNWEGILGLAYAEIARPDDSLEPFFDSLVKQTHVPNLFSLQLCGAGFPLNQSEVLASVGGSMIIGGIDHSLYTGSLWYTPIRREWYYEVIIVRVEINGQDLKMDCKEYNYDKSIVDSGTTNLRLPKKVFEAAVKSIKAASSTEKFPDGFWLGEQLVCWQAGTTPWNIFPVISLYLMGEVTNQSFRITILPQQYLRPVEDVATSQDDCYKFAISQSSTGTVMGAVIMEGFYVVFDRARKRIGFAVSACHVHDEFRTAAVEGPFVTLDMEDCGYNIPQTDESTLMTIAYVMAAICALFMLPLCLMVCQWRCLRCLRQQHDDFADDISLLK

As for `CC1(C#Cc2cc(F)c3c(c2)[C@]2(CCOC(N)=N2)c2cc(-c4cccnc4F)ccc2O3)COC1` [Example 17A, (S)-4′-fluoro-7′-(2-fluoropyridin-3-yl)-2′-((3-methyloxetan-3-yl)ethynyl)-5,6-dihydrospiro[[1,3]oxazine-4,9′-xanthen]-2-amine], the pIC50 with Aβ40 (setting [1]) was 8.59; on BACE it was 8.48. For the same compound, the inhibition in vivo at 10 mg/kg was 44% with Abeta 40 (setting [2]) and 37% in the assay on Abeta 40 (setting [3]).

Consider `NC1=N[C@@]2(COC1)c1cc(-c3cccnc3F)ccc1Oc1cnc(-c3ccnc(F)c3)cc12` [Example 30, (S)-7-(2-fluoropyridin-3-yl)-3-(2-fluoropyridin-4-yl)-2′,6′-dihydrospiro[chromeno[2,3-c]pyridine-5,3′-[1,4]oxazin]-5′-amine], for which the pIC50 in the assay with Aβ40 (setting [4]) is 8.77; at BACE, 9.52. Moreover, the inhibition in vivo at 10 mg/kg is 67% with Abeta 40 (setting [2]) and 62% in the assay with Abeta 40 (setting [3]).

Turning to `NC1=N[C@@]2(COC1)c1cc(-c3cccnc3F)ccc1Oc1cnc(N3CCC(F)(F)CC3)cc12` [Example 32, (S)-3-(4,4-difluoropiperidin-1-yl)-7-(2-fluoropyridin-3-yl)-2′,6′-dihydrospiro[chromeno[2,3-c]pyridine-5,3′-[1,4]oxazin]-5′-amine], the results for the pIC50 with Aβ40 (setting [4]) and on BACE were 8.92 and 9.22, respectively. Besides, the inhibition in vivo at 10 mg/kg with Abeta 40 (setting [2]) worked out at 37%; in the assay with Abeta 40 (setting [3]), 26%.

Regarding `CC(C)(C)COc1cc2c(cn1)Oc1ccc(-c3cccnc3F)cc1[C@@]21COCC(N)=N1` [Example 33, (S)-7-(2-fluoropyridin-3-yl)-3-(neopentyloxy)-2′,6′-dihydrospiro[chromeno[2,3-c]pyridine-5,3′-[1,4]oxazin]-5′-amine], the pIC50 is 8.96 with Aβ40 (setting [4]) and 9.40 on BACE. In addition, the inhibition in vivo at 10 mg/kg is 61% in the assay with Abeta 40 (setting [2]) and 48% with Abeta 40 (setting [3]).

As to `NC1=N[C@@]2(COC1)c1cc(-c3cccnc3F)ccc1Oc1c(F)cc(-c3ccnc(F)c3)cc12` [Example 36A, (S)-4′-fluoro-7′-(2-fluoropyridin-3-yl)-2′-(2-fluoropyridin-4-yl)-2,6-dihydrospiro[[1,4]oxazine-3,9′-xanthen]-5-amine], the pIC50 in the assay with Aβ40 (setting [4]) is 8.54; on BACE, 9.40. Also, the inhibition in vivo at 10 mg/kg with Abeta 40 (setting [2]) was determined as 26%; with Abeta 40 (setting [3]), 25%.

Consider `CC(C)(F)COc1cc(F)c2c(c1)[C@]1(COCC(N)=N1)c1cc(-c3cccnc3F)ccc1O2` [Example 37A, (S)-4′-fluoro-2′-(2-fluoro-2-methylpropoxy)-7′-(2-fluoropyridin-3-yl)-2,6-dihydrospiro[[1,4]oxazine-3,9′-xanthen]-5-amine], for which the pIC50 in the assay on Aβ40 (setting [4]) was 8.89; at BACE it was 9.70. Moreover, the inhibition in vivo at 10 mg/kg worked out at 44% in the assay on Abeta 40 (setting [2]) and 39% in the assay on Abeta 40 (setting [3]).

Consider `NC1=N[C@@]2(COC1)c1cc(-c3cccnc3F)ccc1Oc1c(F)cc(C3=CCOCC3)cc12` [Example 40, (S)-2′-(3,6-dihydro-2H-pyran-4-yl)-4′-fluoro-7′-(2-fluoropyridin-3-yl)-2,6-dihydrospiro[[1,4]oxazine-3,9′-xanthen]-5-amine], for which the pIC50 with Aβ40 (setting [4]) was 8.52; on BACE, 9.52. Also, the inhibition in vivo at 10 mg/kg with Abeta 40 (setting [2]) is 33%; in the assay on Abeta 40 (setting [3]) it was 15%.

With `CC1(C#Cc2cc(F)c3c(c2)[C@]2(COCC(N)=N2)c2cc(-c4cccnc4F)ccc2O3)COC1` [Example 41, (S)-4′-fluoro-7′-(2-fluoropyridin-3-yl)-2′-((3-methyloxetan-3-yl)ethynyl)-2,6-dihydrospiro[[1,4]oxazine-3,9′-xanthen]-5-amine], the pIC50 with Aβ40 (setting [4]) is 8.72; on BACE it was 9.30. For the same compound, the figures for the inhibition in vivo at 10 mg/kg in the assay with Abeta 40 (setting [2]) and in the assay with Abeta 40 (setting [3]) were 13% and 23%, respectively.

Consider `CC(C)(C)COc1cnc2c(c1)[C@]1(COCC(N)=N1)c1cc(-c3cccnc3F)ccc1O2` [Example 55, (S)-7-(2-fluoropyridin-3-yl)-3-(neopentyloxy)-2′,6′-dihydrospiro[chromeno[2,3-b]pyridine-5,3′-[1,4]oxazin]-5′-amine], for which the pIC50 in the assay on Aβ40 (setting [1]) is 9.40; at BACE, 9.10. Further, the inhibition in vivo at 10 mg/kg in the assay with Abeta 40 (setting [2]) stood at 65%; in the assay with Abeta 40 (setting [3]), 51%.

With `NC1=N[C@@]2(CCO1)c1cc(-c3cccnc3F)ccc1Oc1ncc(-c3ccnc(F)c3)cc12` [Example 60, (S)-7-(2-fluoropyridin-3-yl)-3-(2-fluoropyridin-4-yl)-5′,6′-dihydrospiro[chromeno[2,3-b]pyridine-5,4′-[1,3]oxazin]-2′-amine], the pIC50 was 7.96 in the assay on Aβ40 (setting [1]) and 7.91 at BACE. The inhibition in vivo at 10 mg/kg is 56% in the assay with Abeta 40 (setting [2]) and 25% in the assay on Abeta 40 (setting [3]).

`CC1(C#Cc2cnc3c(c2)[C@]2(CCOC(N)=N2)c2cc(-c4cccnc4F)ccc2O3)COC1` [Example 61, (S)-7-(2-fluoropyridin-3-yl)-3-((3-methyloxetan-3-yl)ethynyl)-5′,6′-dihydrospiro[chromeno[2,3-b]pyridine-5,4′-[1,3]oxazin]-2′-amine]: the pIC50 is 8.62 with Aβ40 (setting [1]) and 8.55 on BACE. Moreover, the values for the inhibition in vivo at 10 mg/kg in the assay with Abeta 40 (setting [2]) and with Abeta 40 (setting [3]) were 70% and 55%, respectively.

Turning to `NC1=N[C@@]2(COC1)c1cc(-c3cccnc3)ccc1Oc1c(F)cc(C3=CCCOC3)cc12` [Example 63, (S)-2′-(5,6-dihydro-2H-pyran-3-yl)-4′-fluoro-7′-(pyridin-3-yl)-2,6-dihydrospiro[[1,4]oxazine-3,9′-xanthen]-5-amine], the pIC50 is 9.30 with Aβ40 (setting [4]) and 9.52 on BACE. Besides, the inhibition in vivo at 10 mg/kg came out at 19% in the assay on Abeta 40 (setting [2]) and 16% in the assay on Abeta 40 (setting [3]).

As to `NC1=N[C@]2(COC1)c1cc(C3=CCOCC3)ccc1Oc1ccc(-c3cccnc3F)cc12` [Example 64, (R)-2′-(3,6-dihydro-2H-pyran-4-yl)-7′-(2-fluoropyridin-3-yl)-2,6-dihydrospiro[[1,4]oxazine-3,9′-xanthen]-5-amine], the results for the pIC50 with Aβ40 (setting [4]) and on BACE were 8.28 and 9.22, respectively. Besides, the figures for the inhibition in vivo at 10 mg/kg with Abeta 40 (setting [2]) and with Abeta 40 (setting [3]) were 8% and 4%, respectively.

On to `NC1=N[C@]2(COC1)c1cc(-c3ccnc(F)c3)ccc1Oc1ccc(-c3cccnc3F)cc12` [Example 65, (R)-2′-(2-fluoropyridin-3-yl)-7′-(2-fluoropyridin-4-yl)-2,6-dihydrospiro[[1,4]oxazine-3,9′-xanthen]-5-amine], for which the pIC50 is 7.74 in the assay on Aβ40 (setting [4]) and 8.80 on BACE. Moreover, the inhibition in vivo at 10 mg/kg with Abeta 40 (setting [2]) is 14%; in the assay with Abeta 40 (setting [3]) it was 55%.

Turning to `NC1=N[C@@]2(COC1)c1cc(-c3cccnc3F)ccc1Oc1cnc(-c3ccc(F)c(F)c3)cc12` [Example 73, (5S)-3-(3,4-difluorophenyl)-7-(2-fluoro-3-pyridinyl)-6′H-spiro[chromeno[2,3-c]pyridine-5,3′-[1,4]oxazin]-5′-amine], the pIC50 in the assay on Aβ40 (setting [4]) was 8.57; at BACE it was 9.52. The inhibition in vivo at 10 mg/kg with Abeta 40 (setting [2]) stood at 62%; in the assay on Abeta 40 (setting [3]) it was 42%.
